For series [1], the system named is acetylated histone H3, acetylated histone H4, procaspase-3, cleaved caspase-3 and cleaved PARP. The experiment in a line: Western blot analysis in HL60 cells. The series is classed as cell-based, human. As to conditions: 48 h treatment. For orientation: In western blotting, separated proteins are transferred to a membrane and probed.
Series [2] relates to U937 human tumor xenografts. The experiment in a line: In vivo antitumor assay, U937 xenograft model. As to conditions: for Body weight loss compared with the control group (toxicity): oral, MS275 50 mg/kg/day, 11a 100 mg/kg/day.
The nature of series [3]: Intracellular fluid concentration. In kind it is in vitro ADME. As to conditions: preliminary results, data not shown.
Series [4] can be described thus: Lip-water partition coefficient. As to conditions: compound concentration in n-octyl alcohol 5 mM. In kind it is physicochemical.
Series [5] relates to HCT116 human tumor xenografts. The experiment in a line: In vivo antitumor assay, HCT116 xenograft model. Conditions: oral, 11a 100 mg/kg, SAHA 100 mg/kg, MS275 50 mg/kg.

As to `COc1ccc(C(=O)N[C@@H](Cc2c[nH]c3ccccc23)C(=O)NCc2ccc(C(=O)Nc3ccccc3N)cc2)cc1` [Compound 11a, (S)-4-((3-(1H-indol-3-yl)-2-(4-methoxybenzamido)propanamido)methyl)-N-(2-aminophenyl)benzamide], in series [1], the “Level of acetylated histone H3 and acetylated histone H4 (western blot)” value was “markedly increase”; the “Levels of procaspase-3, cleaved caspase-3 and cleaved PARP (western blot)” value (from here on “Levels”) is “dramatically reduced the level of procaspase-3 and increased the level of cleaved caspased-3 and cleaved PARP”. Besides, the “Body weight loss compared with the control group (toxicity)” value in series [2] is on record as “This toxicity didn’t appear”.
On to `COc1ccc(C(=O)N[C@@H](Cc2c[nH]c3ccccc23)C(=O)NCc2ccc(C(=O)Nc3cc(-c4ccccc4)ccc3N)cc2)cc1` [Compound 56c, (S)-4-((3-(1H-indol-3-yl)-2-(4-methoxybenzamido)propanamido)methyl)-N-(4-amino-[1,1’-biphenyl]-3-yl)benzamide], for which, in series [1], the “Level of acetylated histone H3 and acetylated histone H4 (western blot)” value is “much less effects”; the “Levels” value is reported as “could be hardly affected”. Moreover, the “Intracellular fluid concentration, times lower than 11a” value in series [3] is reported as “more than 10 times”. Further, in series [4], the “Detection in water phase in LogP test (water solubility)” value is on record as “could hardly detect 56c in water phase”.
In the case of `Nc1ccccc1NC(=O)c1ccc(CNC(=O)OCc2cccnc2)cc1` [MS275], the “Levels” value in series [1] was “dramatically reduced the level of procaspase-3 and increased the level of cleaved caspased-3 and cleaved PARP”. In addition, the Body weight loss entry in series [2] (first experiment, 100 mg/kg/day oral, three days later) is “serious body weight loss”. Moreover, the “Body weight loss compared with the control group (toxicity)” value in series [2] was “obvious body weight loss”. The “Body weight loss compared with the control group” value in series [5] is reported as “serious body weight loss was observed”.

Source of the values: PMC5994920 (European journal of medicinal chemistry, 2017).
